Experimental data published in US20250213581A1, “COMBINATION THERAPY OF A PI3K INHIBITOR AND KRAS INHIBITOR AND METHODS OF USE THEREOF” (Totus Medicines Inc., priority 2022, published 2025).
Like-named read-outs stand apart in the source and are kept apart here.

How the values were obtained:
Calu-1 (Lung) = test: Cell proliferation assay (CellTiter-Glo, 3 days), single agent; type: cell-based
Method: (§1) Two duplicate plates were set up.
(§2) At day 0, 10 μL culture medium to each well for T0 reading. […] Compound I was diluted and 10 μL of each 10× compound I from working solutions for a concentration ranging from 10 μM to about 0.005 μM. Cisplatin was diluted to about 3.33 mM to about 150 nM.
(§3) IC50's were determined for each cell line.

HCC44 (Lung) = test: as above; type: cell-based
Method: as §1, §2, §3

KYSE-410 (HN/Esophagus) = test: as above; type: cell-based; settings: 3 days treatment; read-out: Absolute IC50
Method: as §1, §2, §3

MIA PaCa-2 (Pancreas) = test: as above; type: cell-based
Method: as §1, §2, §3

NCI-H1373 (Lung) = test: as above; type: cell-based
Method: as §1, §2, §3

NCI-H1792 (Lung) = test: as above; type: cell-based
Method: as §1, §2, §3

NCI-H2122 (Lung) = test: as above; type: cell-based
Method: as §1, §2, §3

NCI-H23 (Lung) = test: as above; type: cell-based
Method: as §1, §2, §3

NCI-H358 (Lung) = test: as above; type: cell-based; settings: 3 days treatment
Method: as §1, §2, §3

SW1463 (rectum) = test: as above; type: cell-based; settings: 3 days treatment; read-out: Absolute IC50
Method: as §1, §2, §3

SW756 (Cervix) = test: as above; type: cell-based; settings: 3 days treatment; read-out: Absolute IC50
Method: as §1, §2, §3

SW837 (Rectum) = test: as above; type: cell-based
Method: as §1, §2, §3

UM-UC-3 (bladder) = test: as above; type: cell-based
Method: as §1, §2, §3

PI3K = target: T1, PI3K (Homo sapiens, UniProt P42336); test: NanoBRET screening (binding assay) in transfected HEK293 cells; settings: overnight incubation, washout
T1 construct: expressed in transfected cells; host or cells: HEK293 (Gibco 293-H), transient transfection with FuGENE HD
Method: Human embryonic kidney 293-H (HEK 293, Gibco 293-H, #11631017) cell lines were maintained in Dulbecco's Modified Eagle Medium, high glucose, pyruvate (DMEM, Gibco, #11995065) supplemented with 10% fetal bovine serum (FBS, Gibco, #10082147) and 1× penicillin-streptomycin (100× solution, Gibco, #15140148) at 37° C. and 5% CO2 in a water-saturated incubator. […] Opti-MEM media supplemented with 10% fetal bovine serum (Opti-MEM I reduced serum media, no phenol red, Gibco, #11058021) was used for culturing cells overnight for NanoBRET readout experiments.
HEK293 cells were cultivated appropriately prior to assay. The medium from cell flask was removed via aspiration, washed 1× with PBS followed by aspiration, trypsinized, and cells were allowed to dissociate from the flask. Trypsin was neutralized using growth medium and cells were pelleted via centrifugation at 200×g for 5 minutes. The medium was aspirated and the cells were resuspended into a single cell suspension using Opti-MEM I supplemented with 10% FBS. The cell density was adjusted to 2×10^5/mL in Opti-MEM I supplemented with 10% FBS in a sterile, conical tube. […]
A 10 μg/mL solution of DNA was prepared in Opti-MEM without serum. […] The plate on plate reader is read every hour for the next 6 hours.

[1] = system: UM-UC-3 (bladder) cell lines; test: Cell proliferation assay and synergy analysis, Compound I with Adagrasib; settings: Homo sapiens, UMUC3, 72 h, read-out: Ave Inhibition rate (%)
Source text: (§4) The cell lines tested included: UM-UC-3 (bladder), KYSE-410 (HN/Esophagus), SW1463 (rectum), Calu-1 (Lung), NCI-H358 (Lung), SW837 (Rectum), SW756 (Cervix), NCI-H2122 (Lung), NCI-H1373 (Lung), NCI-H1792 (Lung), NCI-H23 (Lung), MIA PaCa-2 (Pancreas), and HCC44 (Lung).
(§5) Cells were recovered and maintained in appropriate culture media. The cells were harvested respectively during the logarithmic growth period. The cells were then resuspended and counted using a Vi cell counter (The cell viability was measured by trypan blue exclusion assay). The cells were then diluted and 80 μL of the cell suspensions were added to 96-well plates according to plate map with final cell density. Two duplicate plates were set up. One is for day 0 reading (T0) and the other was cultured in the incubator for reading at the end point. The incubated plates were incubated overnight in humidified incubator at 37° C. with 5% CO2.
(§6) At day 0, 20 μL of culture medium was added to each well for T0 reading. 10 μL of culture medium was added to each well for day 0 (T0) reading. Then, 50 μl of CellTiter-Glo® Reagent was added to each well. The contents were then mixed for 2 minutes on an orbital shaker to facilitate cell lysis. The plates were then allowed to incubate at room temperature for 10 minutes to stabilize luminescent signal. Luminescence was then recorded using an EnVision Multi Label Reader. […] The screening plates were then placed back into the incubator for the appropriate treatment time (3 days).
(§7) For the endpoint CTG reading, 50 μL of CellTiter-Glo® Reagent was added to each well. The contents were then mixed for 2 minutes on an orbital shaker to facilitate cell lysis. The plate was allowed to incubate at room temperature for 10 minutes to stabilize luminescent signal. Luminescence was then recorded using an EnVision Multi Label Reader. The surviving rate (%)=(LumTest article−LumMedium control)/(LumNone treated−LumMedium control)×100%.
(§8) A score higher than 5 indicates synergy, and a score less than −5 indicates antagonism.

[2] = system: KYSE-410 (HN/Esophagus) cell lines; test: as above; settings: Homo sapiens, KYSE-410, 72 h, read-out: Ave inhibition (%)
Source text: as §4, §5, §6, §7, §8

[3] = system: SW1463 (rectum) cell lines; test: as above; settings: Homo sapiens, SW1463, 72 h, read-out: Ave Inhibition (%)
Source text: as §4, §5, §6, §7, §8

Calu-1 (Lung) cell lines = test: as above; settings: Homo sapiens, Calu-1, 72 h, read-out: Ave of Inhibition (%)
Source text: as §4, §5, §6, §7, §8

[4] = system: NCI-H358 (Lung) cell lines; test: as above; settings: Homo sapiens, NCI-H358, 72 h, read-out: Ave of Inhibition (%)
Source text: as §4, §5, §6, §7, §8

[5] = system: SW837 (Rectum) cell lines; test: as above; settings: Homo sapiens, SW837, 72 h, read-out: Ave of Inhibition (%)
Source text: as §4, §5, §6, §7, §8

[6] = system: SW756 (Cervix) cell lines; test: as above; settings: Homo sapiens, SW756, 72 h, read-out: Ave Inhibition (%)
Source text: as §4, §5, §6, §7, §8

[7] = 3 days treatment, read-out: Absolute IC50
[8] = Homo sapiens, HCC44, read-out: Average Inhibition (%) (N = 3)
[9] = Homo sapiens, MIA PaCa-2, read-out: Average Inhibition (%) (N = 3)
[10] = Homo sapiens, NCI-H1373, read-out: Average Inhibition (%) (N = 3)
[11] = Homo sapiens, NCI-H1792, read-out: Average Inhibition (%) (N = 3)
[12] = Homo sapiens, NCI-H2122, read-out: Average Inhibition (%) (N = 3)
[13] = Homo sapiens, NCI-H23, read-out: Average Inhibition (%) (N = 3)

T1 sequence (P42336 whole entry): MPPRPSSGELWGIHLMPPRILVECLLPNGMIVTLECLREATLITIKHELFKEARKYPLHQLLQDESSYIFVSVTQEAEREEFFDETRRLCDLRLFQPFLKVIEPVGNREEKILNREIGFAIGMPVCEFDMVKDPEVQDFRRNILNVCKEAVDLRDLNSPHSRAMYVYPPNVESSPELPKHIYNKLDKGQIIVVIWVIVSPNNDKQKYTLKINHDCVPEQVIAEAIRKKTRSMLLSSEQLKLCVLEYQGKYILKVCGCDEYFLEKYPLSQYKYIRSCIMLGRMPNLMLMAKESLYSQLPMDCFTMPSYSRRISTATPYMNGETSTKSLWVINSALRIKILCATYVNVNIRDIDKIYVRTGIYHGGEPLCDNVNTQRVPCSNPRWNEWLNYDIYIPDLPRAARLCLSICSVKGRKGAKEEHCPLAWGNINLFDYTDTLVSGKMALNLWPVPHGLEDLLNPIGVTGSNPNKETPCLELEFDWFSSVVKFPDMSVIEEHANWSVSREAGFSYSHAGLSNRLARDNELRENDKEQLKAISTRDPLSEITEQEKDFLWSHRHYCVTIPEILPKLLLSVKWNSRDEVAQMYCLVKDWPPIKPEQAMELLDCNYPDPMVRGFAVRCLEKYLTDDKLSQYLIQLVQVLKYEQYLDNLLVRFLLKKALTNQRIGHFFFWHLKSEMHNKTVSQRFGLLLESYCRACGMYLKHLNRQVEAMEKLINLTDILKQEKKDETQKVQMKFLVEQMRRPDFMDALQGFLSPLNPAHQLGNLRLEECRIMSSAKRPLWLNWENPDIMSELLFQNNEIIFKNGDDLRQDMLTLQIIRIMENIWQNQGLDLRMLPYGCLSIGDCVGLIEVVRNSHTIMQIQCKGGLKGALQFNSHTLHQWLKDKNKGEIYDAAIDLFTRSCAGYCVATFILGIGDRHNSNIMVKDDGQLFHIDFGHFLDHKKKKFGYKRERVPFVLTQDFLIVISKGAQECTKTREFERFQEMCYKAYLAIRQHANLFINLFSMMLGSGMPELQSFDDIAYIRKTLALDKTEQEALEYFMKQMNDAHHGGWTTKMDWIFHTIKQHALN
T1 sequence (P27986 whole entry partner): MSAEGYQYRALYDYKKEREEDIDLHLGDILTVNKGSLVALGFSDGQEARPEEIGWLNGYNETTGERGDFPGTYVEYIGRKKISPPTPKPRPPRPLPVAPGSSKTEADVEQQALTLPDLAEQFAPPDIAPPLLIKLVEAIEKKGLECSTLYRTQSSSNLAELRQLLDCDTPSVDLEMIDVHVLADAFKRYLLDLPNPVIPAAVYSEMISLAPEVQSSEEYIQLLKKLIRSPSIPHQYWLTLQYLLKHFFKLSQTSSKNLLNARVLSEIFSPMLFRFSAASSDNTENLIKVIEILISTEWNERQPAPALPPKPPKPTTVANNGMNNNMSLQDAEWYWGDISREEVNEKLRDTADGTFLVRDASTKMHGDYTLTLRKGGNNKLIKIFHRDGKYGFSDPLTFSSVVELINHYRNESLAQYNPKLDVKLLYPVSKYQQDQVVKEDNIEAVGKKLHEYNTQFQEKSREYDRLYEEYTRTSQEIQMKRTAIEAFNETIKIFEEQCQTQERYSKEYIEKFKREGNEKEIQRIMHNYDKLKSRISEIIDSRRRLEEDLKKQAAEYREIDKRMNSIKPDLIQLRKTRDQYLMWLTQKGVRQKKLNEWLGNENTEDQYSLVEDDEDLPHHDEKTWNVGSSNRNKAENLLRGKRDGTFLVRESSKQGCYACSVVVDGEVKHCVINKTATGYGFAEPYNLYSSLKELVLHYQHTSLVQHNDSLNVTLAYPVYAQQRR

## N.N.[Cl][Pt][Cl] [Cisplatin, reference compound]
Calu-1 (Lung); [7]
  IC50: 10.2 µM
HCC44 (Lung); [7]
  IC50: 7.96 µM
KYSE-410 (HN/Esophagus)
  IC50: 15.8 µM
MIA PaCa-2 (Pancreas); [7]
  IC50: 7.03 µM
NCI-H1373 (Lung); [7]
  IC50: 8.72 µM
NCI-H1792 (Lung); [7]
  IC50: 4.88 µM
NCI-H2122 (Lung); [7]
  IC50: 17.8 µM
NCI-H23 (Lung); [7]
  IC50: 3.58 µM
NCI-H358 (Lung); read-out: Absolute IC50
  IC50: 12.5 µM
SW1463 (rectum)
  IC50: 12.2 µM
SW756 (Cervix)
  IC50: 10.3 µM
SW837 (Rectum); [7]
  IC50: 42.5 µM
UM-UC-3 (bladder); [7]
  IC50: 1.86 µM

## C=CC(=O)NCC(=O)N1CCN(Cc2cc3c(N4CCOCC4)nc(-c4cnc(NC(=O)OC)cc4C(F)(F)F)nn3c2)CC1 [Compound I, methyl (5-(6-((4-(acryloylglycyl)piperazin-1-yl)methyl)-4-morpholinopyrrolo[2,1-f][1,2,4]triazin-2-yl)-4-(trifluoromethyl)pyridin-2-yl)carbamate]
PI3K
  inhibition of the PI3K target: greater than 80%
Calu-1 (Lung); Homo sapiens, Calu-1, 72 h, read-out: Absolute IC50 (μM)
  IC50: > 10 µM
HCC44 (Lung); [8]
  inhibition at 0.0046 µM: -3.82%
  inhibition at 0.0137 µM: -4.27%
  inhibition at 0.0412 µM: -1.38%
  inhibition at 0.1235 µM: 1.74%
  inhibition at 0.3704 µM: 10.1%
  inhibition at 1.1111 µM: 19.7%
  inhibition at 3.3333 µM: 33.1%
  inhibition at 10 µM: 43.7%
MIA PaCa-2 (Pancreas); Homo sapiens, MIA PaCa-2, 72 h, read-out: Absolute IC50 (μM)
  IC50: > 10 µM
MIA PaCa-2 (Pancreas); [9]
  inhibition at 0.0046 µM: -5.76%
  inhibition at 0.0137 µM: -10.3%
  inhibition at 0.0412 µM: -8.58%
  inhibition at 0.1235 µM: -9.5%
  inhibition at 0.3704 µM: -5.32%
  inhibition at 1.1111 µM: 1.46%
  inhibition at 3.3333 µM: 13.9%
  inhibition at 10 µM: 30.6%
NCI-H1373 (Lung); Homo sapiens, NCI-H1373, 72 h, read-out: Absolute IC50 (μM)
  IC50: > 10 µM
NCI-H1373 (Lung); [10]
  inhibition at 0.0046 µM: -3.29%
  inhibition at 0.0137 µM: -6.68%
  inhibition at 0.0412 µM: -5.53%
  inhibition at 0.1235 µM: -6.17%
  inhibition at 0.3704 µM: -5.69%
  inhibition at 1.1111 µM: -4.7%
  inhibition at 3.3333 µM: -9.75%
  inhibition at 10 µM: 8.28%
NCI-H1792 (Lung); Homo sapiens, NCI-H1792, 72 h, read-out: Absolute IC50 (μM)
  IC50: > 10 µM
NCI-H1792 (Lung); [11]
  inhibition at 0.0046 µM: -7.35%
  inhibition at 0.0137 µM: -1.4%
  inhibition at 0.0412 µM: 2.27%
  inhibition at 0.1235 µM: 6.64%
  inhibition at 0.3704 µM: 7.05%
  inhibition at 1.1111 µM: 12.2%
  inhibition at 3.3333 µM: 22.4%
  inhibition at 10 µM: 34%
NCI-H2122 (Lung); [12]
  inhibition at 0.0046 µM: -2.13%
  inhibition at 0.0137 µM: 2.34%
  inhibition at 0.0412 µM: 13.6%
  inhibition at 0.1235 µM: 24%
  inhibition at 0.3704 µM: 36.5%
  inhibition at 1.1111 µM: 45.6%
  inhibition at 3.3333 µM: 52.5%
  inhibition at 10 µM: 63.2%
NCI-H23 (Lung); Homo sapiens, NCI-H23, 72 h, read-out: Absolute IC50 (μM)
  IC50: > 10 µM
NCI-H23 (Lung); [13]
  inhibition at 0.0046 µM: 6.06%
  inhibition at 0.0137 µM: 7.11%
  inhibition at 0.0412 µM: 12.1%
  inhibition at 0.1235 µM: 15.4%
  inhibition at 0.3704 µM: 14.9%
  inhibition at 1.1111 µM: 23.4%
  inhibition at 3.3333 µM: 28.6%
  inhibition at 10 µM: 37.2%
NCI-H358 (Lung)
  inhibitory effect on cell proliferation (in words): substantial inhibitory effect
SW837 (Rectum); Homo sapiens, SW837, 72 h, read-out: Absolute IC50 (μM)
  IC50: > 10 µM
UM-UC-3 (bladder); Homo sapiens, UMUC3, 72 h, read-out: Absolute IC50 (μM)
  IC50: > 10 µM
[1]
  inhibition at 0.0046 µM: -5.05%
  inhibition at 0.0137 µM: -5.07%
  inhibition at 0.0412 µM: -7.94%
  inhibition at 0.1235 µM: -4.04%
  inhibition at 0.3704 µM: 0.18%
  inhibition at 1.1111 µM: 9.37%
  inhibition at 3.3333 µM: 27.4%
  inhibition at 10 µM: 44.8%
[2]
  inhibition at 0.0046 µM: -1.36%
  inhibition at 0.0137 µM: 3.14%
  inhibition at 0.0412 µM: 9.47%
  inhibition at 0.1235 µM: 17.1%
  inhibition at 0.3704 µM: 29.4%
  inhibition at 1.1111 µM: 50.5%
  inhibition at 3.3333 µM: 65.8%
  inhibition at 10 µM: 71.3%
[3]
  inhibition at 0.0046 µM: 4.57%
  inhibition at 0.0137 µM: 2.64%
  inhibition at 0.0412 µM: 6.01%
  inhibition at 0.1235 µM: 15.7%
  inhibition at 0.3704 µM: 21.8%
  inhibition at 1.1111 µM: 29.5%
  inhibition at 3.3333 µM: 40.4%
  inhibition at 10 µM: 48.4%
Calu-1 (Lung) cell lines
  inhibition at 0.0046 µM: -8.39%
  inhibition at 0.0137 µM: -5.3%
  inhibition at 0.0412 µM: -3.3%
  inhibition at 0.1235 µM: -0.27%
  inhibition at 0.3704 µM: 3.9%
  inhibition at 1.1111 µM: 31%
  inhibition at 3.3333 µM: 11.6%
  inhibition at 10 µM: 22.6%
[4]
  inhibition at 0.0046 µM: 0.76%
  inhibition at 0.0137 µM: 4.1%
  inhibition at 0.0412 µM: 10.8%
  inhibition at 0.1235 µM: 17.1%
  inhibition at 0.3704 µM: 25%
  inhibition at 1.1111 µM: 38.9%
  inhibition at 3.3333 µM: 50.4%
  inhibition at 10 µM: 61%
[5]
  inhibition at 0.0046 µM: -3.3%
  inhibition at 0.0137 µM: -0.64%
  inhibition at 0.0412 µM: 8.04%
  inhibition at 0.1235 µM: 9.71%
  inhibition at 0.3704 µM: 15.9%
  inhibition at 1.1111 µM: 19%
  inhibition at 3.3333 µM: 21.8%
  inhibition at 10 µM: 27.5%
[6]
  inhibition at 0.0046 µM: -1.03%
  inhibition at 0.0137 µM: -0.86%
  inhibition at 0.0412 µM: 1.55%
  inhibition at 0.1235 µM: 4.83%
  inhibition at 0.3704 µM: 8.26%
  inhibition at 1.1111 µM: 14.3%
  inhibition at 3.3333 µM: 21.6%
  inhibition at 10 µM: 34.6%
